# Data as given in patent US8119669B2, “Substituted phenoxy N-alkylated thiazolidinediones as estrogen related receptor-α modulators” (Janssen Pharmaceutica N.V., priority 2007, dated 2012).
# Biological target: T1, ERR1 (also known as ERR-α or ERR-1) (Homo sapiens, UniProt P11474)
# T1 sequence (P11474 193-421 limits assumed): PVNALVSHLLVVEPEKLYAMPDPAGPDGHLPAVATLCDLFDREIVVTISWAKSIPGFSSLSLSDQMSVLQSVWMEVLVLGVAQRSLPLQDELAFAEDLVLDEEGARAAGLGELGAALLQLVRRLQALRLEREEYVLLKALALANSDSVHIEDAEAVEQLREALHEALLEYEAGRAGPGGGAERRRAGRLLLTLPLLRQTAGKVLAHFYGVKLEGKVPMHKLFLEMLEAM
# Test: TR-FRET Assay (disruption of co-activator peptide binding to ERR1 LBD)
# Assay type: biochemical
# Conditions: 6His-tagged ERR1 LBD 6 nM, GST-hSRC2 co-activator peptide 6 nM; 25° C., 4-18 hours; average of 3 independent experiments
# Experimental: Time-Resolved Fluorescence Resonance Energy Transfer (TR-FRET) experiments were performed to examine the functional response of ERR1 (also known as ERR-α or ERR-1) ligands. The TR-FRET assay described herein relied on the conformation of ERR1 for binding to a co-activator peptide: when a test compound binds to ERR1 and alters its conformation, it can disrupt the binding of the co-activator peptide. The components of this homogeneous secondary assay included: the ^6His-tagged-ERR1LBD, a GST-labeled-hSRC2 co-activator polypeptide and a fluorescent donor/acceptor pair from CIS bio international htrf/bioassays (Bedford, Mass.) using both an α-GST Europium Cryptate (Eu) label and an α^6His-XL665 (allophycocyanin) fluorophore.
# For TR-FRET measurements, the reaction was buffered in 25 mM Tris pH 8, 2.5 mM Hepes, 20 mM KCl, 1 mM DTT, and 0.05 mg/mL BSA (-lipids). The final concentrations of reagents were 6 nM of ERR1LBD, 6 nM GST-SRC-2 peptide, 30 nM Eu cryptate, and 7.5 nM XL665. Reactions were allowed to reach equilibrium at 25° C. for 4-18 hours before collecting data on the Analyst from LJL Biosystems (Molecular Devices Sunnyvale, Calif.). As a time-resolved method, the samples were excited at […] and emission was collected for 1 ms at both 615 and 665 nm with delays of 400 and 75 μs, respectively. Dose response curves were fitted using a hyperbolic equation and the data reported is the average of 3 independent experiments.
row,EC50,Structure (SMILES)
1,39 nM,"COc1cc(/C=C2\SC(=O)N(CCN(C)C)C2=O)ccc1Oc1ccc(C#N)cc1C(F)(F)F [Compound 2, 4-{4-[3-(2-Dimethylamino-ethyl)-2,4-dioxo-thiazolidin-5-ylidenemethyl]-2-methoxy-phenoxy}-3-trifluoromethyl-benzonitrile]"
2,86 nM,"COc1cc(/C=C2\SC(=O)N(CCn3cccc3)C2=O)ccc1Oc1ccc(C#N)cc1C(F)(F)F [Compound 13, 4-{4-[2,4-Dioxo-3-(2-pyrrol-1-yl-ethyl)-thiazolidin-5-ylidenemethyl]-2-methoxy-phenoxy}-3-trifluoromethyl-benzonitrile]"
3,24 nM,"COc1cc(/C=C2\SC(=O)N(CCn3cncn3)C2=O)ccc1Oc1ccc(C#N)cc1C(F)(F)F [Compound 11, 4-{4-[2,4-Dioxo-3-(2-[1,2,4]triazol-1-yl-ethyl)-thiazolidin-5-ylidenemethyl]-2-methoxy-phenoxy}-3-trifluoromethyl-benzonitrile]"
4,33 nM,"COc1cc(/C=C2\SC(=O)N(CCN3CCCCC3)C2=O)ccc1Oc1ccc(C#N)cc1C(F)(F)F [Compound 9, 4-{4-[2,4-Dioxo-3-(2-piperidin-1-yl-ethyl)-thiazolidin-5-ylidenemethyl]-2-methoxy-phenoxy}-3-trifluoromethyl-benzonitrile]"
5,20 nM,"COc1cc(/C=C2\SC(=O)N(CCN3CCOCC3)C2=O)ccc1Oc1ccc(C#N)cc1C(F)(F)F [Compound 1, 4-{2-Methoxy-4-[3-(2-morpholin-4-yl-ethyl)-2,4-dioxo-thiazolidin-5-ylidenemethyl]-phenoxy}-3-trifluoromethyl-benzonitrile]"
6,320 nM,"N#Cc1ccc(Oc2ccc(/C=C3\SC(=O)N(CCN4CCOCC4)C3=O)cc2F)c(C(F)(F)F)c1 [Compound 6, 4-{2-Fluoro-4-[3-(2-morpholin-4-yl-ethyl)-2,4-dioxo-thiazolidin-5-ylidenemethyl]-phenoxy}-3-trifluoromethyl-benzonitrile]"
7,320 nM,"COc1cc(/C=C2\SC(=O)N(CCN3CCN(C)CC3)C2=O)ccc1Oc1ccc(C#N)cc1C(F)(F)F [Compound 4, 4-(2-Methoxy-4-{3-[2-(4-methyl-piperazin-1-yl)-ethyl]-2,4-dioxo-thiazolidin-5-ylidenemethyl}-phenoxy)-3-trifluoromethyl-benzonitrile]"
8,44 nM,"COc1cc(/C=C2\SC(=O)N(CCN3CCCCCC3)C2=O)ccc1Oc1ccc(C#N)cc1C(F)(F)F [Compound 12, 4-{4-[3-(2-Azepan-1-yl-ethyl)-2,4-dioxo-thiazolidin-5-ylidenemethyl]-2-methoxy-phenoxy}-3-trifluoromethyl-benzonitrile]"
9,42 nM,"COc1cc(/C=C2\SC(=O)N(CCN3CCCC3)C2=O)ccc1Oc1ccc(C#N)cc1C(F)(F)F [Compound 3, 4-{4-[2,4-Dioxo-3-(2-pyrrolidin-1-yl-ethyl)-thiazolidin-5-ylidenemethyl]-2-methoxy-phenoxy}-3-trifluoromethyl-benzonitrile]"
10,59 nM,"COc1cc(/C=C2\SC(=O)N(CCn3cccn3)C2=O)ccc1Oc1ccc(C#N)cc1C(F)(F)F [Compound 10, 4-{4-[2,4-Dioxo-3-(2-pyrazol-1-yl-ethyl)-thiazolidin-5-ylidenemethyl]-2-methoxy-phenoxy}-3-trifluoromethyl-benzonitrile]"
11,59 nM,"CCN(CC)CCN1C(=O)S/C(=C\c2ccc(Oc3ccc(C#N)cc3C(F)(F)F)c(OC)c2)C1=O [Compound 7, 4-{4-[3-(2-Diethylamino-ethyl)-2,4-dioxo-thiazolidin-5-ylidenemethyl]-2-methoxy-phenoxy}-3-trifluoromethyl-benzonitrile]"
12,32 nM,"COc1cc(/C=C2\SC(=O)N(CCn3ccnc3)C2=O)ccc1Oc1ccc(C#N)cc1C(F)(F)F [Compound 8, 4-{4-[3-(2-Imidazol-1-yl-ethyl)-2,4-dioxo-thiazolidin-5-ylidenemethyl]-2-methoxy-phenoxy}-3-trifluoromethyl-benzonitrile]"
13,230 nM,"N#Cc1ccc(Oc2ccc(/C=C3\SC(=O)N(CCN4CCCC4)C3=O)cc2F)c(C(F)(F)F)c1 [Compound 14, 4-{4-[2,4-Dioxo-3-(2-pyrrolidin-1-yl-ethyl)-thiazolidin-5-ylidenemethyl]-2-fluoro-phenoxy}-3-trifluoromethyl-benzonitrile]"
14,360 nM,"CN(C)CCN1C(=O)S/C(=C\c2ccc(Oc3ccc(C#N)cc3C(F)(F)F)c(F)c2)C1=O [Compound 5, 4-{4-[3-(2-Dimethylamino-ethyl)-2,4-dioxo-thiazolidin-5-ylidenemethyl]-2-fluoro-phenoxy}-3-trifluoromethyl-benzonitrile]"
